# Results published in PubChem BioAssay AID1508612.
# Test: passive permeability, PAMPA, ADME assay (AID 1508612)
# Conditions: pH 7.4, 30.0 min, 50.0 µM
row,Structure (SMILES),Papp [nm/s]
1,COc1ccc(C2c3c(ncn(CCN4CCOCC4)c3=N)Oc3ccc4ccccc4c32)cc1OC (stereo not given),> 10000
2,Cc1ccc(S(=O)(=O)NCc2ccccc2)cc1,5370
3,COc1cc(OC)c2c(=O)[nH]c(-c3cc(C)c(OCCO)c(C)c3)nc2c1,5400
4,CCOc1ccc(CCNC(=O)c2cc3sccc3n2C)cc1OCC,> 10000
5,Cc1nn2c(c1-c1ccccc1-c1ccccc1)N(Cc1ccc(C(=O)O)s1)CCC2,1090
6,COc1cccc(C(=O)Nc2ccc3oc(-c4ccc5ccccc5c4)nc3c2)c1,5330
7,CCc1ccccc1Nc1ncnc2c1cnn2-c1ccc(Cl)cc1,2530
8,Cn1nnnc1Sc1ncnc2scc(-c3ccc(F)cc3)c12,9110
9,OCc1ccc(-c2cc3c(ccn3Cc3cccnc3)c(C3=CCOCC3)n2)cc1,4780
10,CN1CCC(N(Cc2cccs2)c2ccccc2)CC1,> 10000
11,Cc1ccc(S(=O)(=O)Nc2ccc(OC(F)(F)F)cc2C(=O)Nc2nc(-c3ccccc3)cs2)cc1,16
12,O=C(c1ccncc1)N1CCC2(CCCN(C(c3ccccc3)c3ccccc3)C2)CC1,> 10000
13,COc1ccnc(NC(=S)N2CCN(c3ccccc3C(F)(F)F)CC2)c1,4890
14,COc1ccccc1-c1nc(NCc2cnc(C)cn2)c2ccccc2n1,> 10000
15,Cn1c(=O)c2c(nc(Cl)n2Cc2ccc(Cl)cc2)n(C)c1=O,> 10000
16,CSc1ccccc1N1CCN(CCCCCC(=O)NC2CCCc3ccccc32)CC1 (stereo not given),> 10000
17,Cc1nn2c(c1-c1ccccc1OCc1ccccc1)N(C(=O)Cc1ccc3c(c1)OCO3)CCC2,> 10000
18,Cc1noc(C)c1-c1ccc2ncnc(NC(C)c3ccccc3)c2c1 (stereo not given),> 10000
19,NS(=O)(=O)c1ccc(Cc2c(-c3cccc(-c4ccccc4)c3)nn(-c3nc(C(=O)O)cs3)c2CC2CC2)cc1,34
20,Cc1cnc(-c2ccccc2C2COC2)nc1NCc1ccc(-c2cccnc2)cc1,28.7
21,O=C(Nc1nc(-c2ccccc2)cs1)c1ccncc1NS(=O)(=O)c1cccs1,832
22,CCOc1ccc(CCNC(=O)c2ccc(C(=O)c3ccccc3)cc2)cc1OCC,> 10000
23,O=S(=O)(Nc1cccc(C(F)(F)F)c1)c1ccc(NS(=O)(=O)c2ccc3c(c2)OCCO3)cc1,6680
24,Cc1ccc(S(=O)(=O)N[C@@H](Cc2ccccc2)C(=O)CCl)cc1,3230

row,Structure (SMILES),Papp [nm/s]
1,Fc1cccc(Nc2nc(-c3ccncc3)nc3ccccc23)c1F,7990
2,COc1ccc(C2=Nn3c(nnc3-c3ccncc3)SC2)cc1,2440
3,CSc1nc(N)cc(Oc2ccc(-c3nc(Nc4cccc(C(F)(F)F)c4)n[nH]3)cc2)n1,6330
4,O=[S+]([O-])(Nc1ccc(C2CCNCC2)cc1)c1ccc(NCc2ccc(Br)cc2O)cc1,63
5,Cn1nnnc1SCCCNCc1cccc(OCc2ccccc2Cl)c1,> 10000
6,COc1ccc(CN2CCN(C(=O)c3cc4c(s3)CCC4)CC2)cc1,9970
7,O=C1Nc2ccccc2/C1=C\c1ccc(O)cc1,7550
8,COc1ccc(OC)c(N2C(=O)C(Cl)=C(N3CCCCC3)C2=O)c1,> 10000
9,O=C(O)c1ccc(N2C(=O)/C(=C/c3ccc(-c4ccc([N+](=O)[O-])cc4)o3)C=C2c2ccccc2)cc1,343
10,COc1nccc(-c2nc(Nc3ccc(F)c(F)c3)c3ccccc3n2)c1OC,> 10000
11,CCCc1ccc(-c2csc(NC(=O)c3ccncc3NS(=O)(=O)c3ccc(C)cc3)n2)cc1,7550
12,O=[N+]([O-])c1ccc(CNc2ccc([S+](=O)([O-])Nc3nccs3)cc2)c(O)c1,12
13,Fc1cnc(-c2ccccc2C(F)F)nc1NCC1CCN(c2cnccn2)CC1,> 10000
14,NC(=O)C1CCN(c2nc(-c3ccccc3Br)cs2)CC1,4620
15,Cc1nnn(C)c1-c1cnc2c3ccc(C(C)(C)O)cc3n([C@H](c3ccccc3)C3CCOCC3)c2c1,7460
16,COc1ccccc1CNc1ccc(S(=O)(=O)Nc2nccs2)cc1,5120
17,Oc1ccc(CNc2ccccc2F)c2cccnc12,340
18,NC(=O)C1CCN(c2nc(-c3cccc(Br)c3)cs2)CC1,7880
19,CCOc1ccc(CCNC(=O)c2cc3cnccc3n2Cc2cccc(C)n2)cc1OCC,70.2
20,Cc1ccc(OCCn2c(CCNC(=O)c3ccccc3Br)nc3ccccc32)cc1,9930
21,C=C1C(=O)O[C@@H]2[C@H]3O[C@]3(C)CC/C=C(\C)CC[C@@H]12,> 10000
22,O=C(Nc1nc(-c2ccc(F)cc2)cs1)c1ccncc1NS(=O)(=O)c1ccc(F)cc1,7550
23,N#Cc1ccccc1CSc1nc2ncc(Br)cc2[nH]1,4150
24,O=C1CCCC2=C1C(c1ncccc1Br)N=C(Nc1nc3ccccc3o1)N2 (stereo not given),3710

# Results, then the compound that gave them:
row,Papp [nm/s],Structure (SMILES)
1,1670,Cc1ccccc1C(=O)Nc1sc2c(c1C(=O)NCc1ccco1)CCC(C(C)(C)C)C2 (stereo not given)
2,14,Cc1sc(NC(=O)Cc2ccc3c(c2)OCO3)nc1-c1ccc2c(c1)CCN2C(=O)c1ccccc1F
3,1390,COc1ccc(C(=O)NC2CCCc3c2[nH]c2c(Cl)cccc32)cc1OC (stereo not given)
4,7060,CCCCc1ccc(NC(=O)c2ccc3c(c2)N(S(C)(=O)=O)CC3)cc1
5,1380,CC(=O)Nc1ccc(C(=O)Nc2ccc3c(c2)N(C2CCCC2)C(=O)c2ccccc2S3)cc1
6,5990,CCOC(=O)C1=C(C)NC(=O)CC1C(=O)Nc1cc(Cl)cc(Cl)c1 (stereo not given)
7,13,CC(C)c1cc(C(=O)N2CC[C@@H](NC(=O)C3CC3)C2)n[nH]1
8,6380,COc1cccc(-c2csc(N3CCC(C(N)=O)CC3)n2)c1
9,125,COC(=O)c1ccc2c(C(=Nc3ccc(N(C)C(=O)CN4CCN(C)CC4)cc3)c3ccccc3)c(O)[nH]c2c1
10,230,Cc1ccc(-c2cc(C(=O)Nc3ccc(S(=O)(=O)N(C)C)cc3)c3ccccc3n2)cc1C
11,> 10000,Cc1nc(N2CCN(c3ccccn3)CC2)c2c(C)c(C(=O)Nc3ccc(F)cc3Cl)sc2n1
12,990,CCOc1ccc(S(=O)(=O)NCc2cccnc2)cc1NC(=O)c1ccccc1F
13,3770,COc1ccc(NC(=O)c2[nH]c(C)c(C(C)=O)c2C)cc1
14,1390,O=C(Nc1ccc(C(=O)N2CCCC2)cc1)c1ccccc1F
15,< 10,COc1ccc(-n2nc(C3CCCN(C(=O)c4ccccc4)C3)[nH]c2=O)cc1 (stereo not given)
16,< 10,CCn1c(-c2nonc2N)nc2cnc(Oc3cccc(NC(=O)c4ccc(OCCN5CCOCC5)cc4)c3)cc21
17,18,O=C(NCCN1CCOCC1)C1CC(=O)N(c2n[nH]c3cc(Br)ccc23)C1 (stereo not given)
18,9170,O=C(Nc1ccccc1)C1CCN(c2ncc(-c3ccc4c(c3)OCCCO4)s2)CC1
19,1030,Cc1ccc2oc3c(c(=O)c2c1)C(c1cccc(O)c1)N(CCCN1CCOCC1)C3=O (stereo not given)
20,< 10,CCCCNC(=O)CN1CCN(c2ncc(NC(=O)c3ccc(Cl)cc3)cc2C(=O)O)CC1
21,338,CCc1cccc(CC)c1-n1c(C=C(C)C)c(C(=O)N2CCNCC2)cc(-c2nc(-c3ccc(C(F)(F)F)cc3)cs2)c1=O
22,1990,CC(=O)c1c(C)[nH]c(C(=O)Nc2cccc([S+](=O)([O-])N3CC[C@@H](F)C3)c2)c1C
23,1170,CC(=O)c1c(C)[nH]c(C(=O)Nc2cccc([S+](=O)([O-])Nc3c(C)cccc3C)c2)c1C
24,7820,CCCc1cc(C)[nH]c(=O)c1CNC(=O)c1cc(-c2ccnc(N3CCN(C)CC3)c2)cc2c1cnn2C(C)C
25,8100,CC(C)Oc1cccc(-c2cnc(N3CCC(C(N)=O)CC3)s2)c1
26,> 10000,O=C(Nc1ccc2c(N3CCCCC3)ncnc2c1)c1cc(F)cc(F)c1
27,1800,C[S+](=O)([O-])c1ccc(-c2nc(C(=O)N3CCOCC3)n3ccccc23)cc1
